SMILES strings stand for the structures. Calls of active or inactive are those of the source. No rule for the calls is given here.

A word on the EC50: it is the concentration giving half of the maximal effect.

The experiment relates to S. cerevisiae GAL1 promoter reporter activation counterscreen. Kind of experiment: GAL1 promoter activators in yeast, artefact control for yeast lifespan extension project, S. cerevisiae (AID 816).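 Also: yeast growth read after 24 h of incubation with compounds.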
On to `C=CCn1c(-c2ccc(OC)cc2)csc1=Nc1c(C)n(C)n(-c2ccccc2)c1=O`, for which the EC50 was > 40 µM (inactive). For `CCOC(=O)c1c(C)oc2c1c(C(c1cccnc1)N1CCOCC1)c(O)c1ccccc12` (stereo not given), the EC50 is > 40 µM (inactive). As for `COc1cccc(/C=C2\C(=O)N(c3cccc(C)c3)C(=O)c3ccccc32)c1`, the EC50 is > 40 µM (inactive).

For the compound `CCc1cc2c(=O)c(Oc3ccccc3)c(C)oc2cc1O`, the EC50 is > 40 µM (inactive). Regarding `CC(=O)C(C(C)=O)c1c(Cl)c(O)c(O)c2c(C(=O)c3ccccc3)coc12`, the EC50 is > 40 µM (inactive). `O=C1c2ccccc2-c2onc3c(Oc4ccccc4)cc(O)c1c23`: the EC50 was > 40 µM (inactive).

Turning to `Fc1cccc2sc(Nc3nnc(-c4ccccc4)o3)nc12`, the EC50 was > 40 µM (inactive). The figure for `Cc1ccnc(N=Cc2c(O)ccc3oc4c(c23)CCCC4)c1` is > 40 µM (inactive); for `O=S(=O)(ON(c1ccccc1)S(=O)(=O)c1ccccc1)c1ccccc1` it is > 40 µM (inactive). Take `Cc1ccc(C)c(N2CCN(S(=O)(=O)c3c(C)noc3/C=C/N(C)C)CC2)c1`: the EC50 is > 40 µM (inactive).

Take `COc1ccccc1N(CN1CCCC1=O)C(=O)c1c(F)cccc1F`: the EC50 was > 40 µM (inactive). On to `CCOC(=O)CSC1=NC(=O)/C(=C/c2ccc(OC)cc2)S1`, for which the EC50 was > 40 µM (inactive). Under `Cc1ccc(N/C(C(Cl)=C(Cl)Cl)=C(/Cl)[N+](=O)[O-])c(C)c1` stands > 40 µM (inactive); under `O=C1c2ccccc2C(=O)N1OCc1ccccc1`, > 40 µM (inactive); under `CCOc1ccccc1/C=c1\sc2ncnn2c1=O`, > 40 µM (inactive). Consider `Cc1cc(C)c(S(=O)(=O)c2ccccc2)c(OC(=O)c2cc(F)c(F)cc2Cl)n1`, for which the EC50 was > 40 µM (inactive). The figure for `COc1ccc(CN2C(=O)/C(=C/c3ccncc3)SC2=S)cc1` is > 40 µM (inactive); for `CCCn1c(SCC(=O)c2ccc3c(c2)NC(=O)CO3)nc2ccccc21` it is > 40 µM (inactive); for `COc1ccc(CCN2C(=O)C(O)=C(C(=O)c3ccco3)C2c2cccs2)cc1OC` (stereo not given) it is > 40 µM (inactive). In the case of `Cc1cccc(NC(=O)c2c(O)c3cccc4c3n(c2=O)CCC4)n1`, the EC50 was > 40 µM (inactive). Turning to `Cc1ccc(NC(=O)C2C(=O)N(C)c3ccccc32)cc1` (stereo not given), the EC50 was > 40 µM (inactive). The figure for `CC(C)n1c(=O)c2c(O)cc(=O)oc2c2ccccc21` is > 40 µM (inactive); for `CN1C(=O)C(C(=O)Nc2ccccc2F)c2ccccc21` (stereo not given) it is > 40 µM (inactive).

Regarding `CC(C)(C)C1CCc2[nH]nc(C(=O)O)c2C1` (stereo not given), the EC50 is > 40 µM (inactive). For the compound `COC(=O)CSc1ncccc1-c1nc2ccccc2[nH]1`, the EC50 is > 40 µM (inactive). Regarding `CC1C/C(=C\c2cccnc2)C(=O)/C(=C/c2cccnc2)C1` (stereo not given), the EC50 was > 40 µM (inactive).

Consider `COc1cc(C(C[N+](=O)[O-])c2c(-c3ccccc3)cc3ccccn23)cc(OC)c1OC` (stereo not given), for which the EC50 was > 40 µM (inactive).

On to `Cc1nc2c(=O)n(C)c(=O)n(C)c2nc1Cl`, for which the EC50 is > 40 µM (inactive). For the compound `Cc1ccccc1Oc1cc(-n2ncc(Cl)c(Cl)c2=O)ncn1`, the EC50 is > 40 µM (inactive). Regarding `Cc1ccc(S(=O)(=O)N[C@@H](Cc2ccccc2)C(=O)CCl)cc1`, the EC50 was > 40 µM (inactive). Take `COC(=O)CCS(=O)(=O)c1nc(-c2ccccc2)cc(C(F)(F)F)n1`: the EC50 was > 40 µM (inactive).

Take `CC1(C)CC(=O)C2=C(C1)OC1=C(C(=O)CC(C)(C)C1)C2c1ccc(O)cc1O`: the EC50 is > 40 µM (inactive).

As for `CS(=O)(=O)c1nc(-c2ccco2)cc(C(F)(F)F)n1`, the EC50 is > 40 µM (inactive). The figure for `O=C(c1ccccc1)c1nc2ccccc2[nH]c1=O` is > 40 µM (inactive). Turning to `O=S(=O)(Nc1nc2ccccc2nc1Cl)c1ccc2ccccc2c1`, the EC50 was > 40 µM (inactive). Regarding `CCOC(=O)C1=C(N)OC2=C(C(=O)CCC2)C1c1sccc1C` (stereo not given), the EC50 was > 40 µM (inactive). Under `O=c1cc(-c2ccccc2Cl)oc2ccc([N+](=O)[O-])c(O)c12` stands > 40 µM (inactive). `Cc1cc(C=C2C(=O)N(C)C(=S)N(C)C2=O)c(C)n1-c1cccnc1`: the EC50 was > 40 µM (inactive). With `CCOC(=O)c1ccc2c(c1)n(CCO)c(C)[n+]2CC`, the EC50 was > 40 µM (inactive).

With `Cc1nn(C(C)(C)C)c(OC(=O)c2ccc(Br)o2)c1Sc1ccccc1`, the EC50 is > 40 µM (inactive). For `O=c1c2[nH]c3ccccc3c2ncn1Cc1ccco1`, the EC50 is > 40 µM (inactive). For the compound `COc1ccc(C2CC23N=C(c2ccccc2)OC3=O)cc1` (stereo not given), the EC50 was > 40 µM (inactive).

As to `c1cncc(-c2nn[nH]n2)c1`, the EC50 was > 40 µM (inactive).

For `O=[N+]([O-])c1c(C(Cl)Cl)nn(-c2ccccc2)c1N1CCCC1`, the EC50 was > 40 µM (inactive). For the compound `CCn1ccc(C(=O)Nc2ccc(S(=O)(=O)Nc3ccccc3OC)cc2)n1`, the EC50 is > 40 µM (inactive). In the case of `CCOc1ccc(N=Cc2c(O)c3ccccc3oc2=O)cc1`, the EC50 was > 40 µM (inactive). Take `COc1ccc(CNC(=O)C2CCN(c3nc(OC)nc(OC)n3)CC2)cc1`: the EC50 is > 40 µM (inactive).

Consider `CCOc1ccc(NCc2nc3ccccc3n2CCOc2ccccc2)cc1`, for which the EC50 is > 40 µM (inactive). Take `CCOC(=O)C1C(c2cccs2)NC(=O)N(C)C1(O)C(F)(F)F` (stereo not given): the EC50 was > 40 µM (inactive). For `COc1ccc(CC(=O)Nc2ccc3c(c2)CCC3)cc1S(=O)(=O)N1CCOCC1`, the EC50 is > 40 µM (inactive). For the compound `Cc1[nH]nc2nc3c(c(OC(=O)c4ccccc4)c12)c(=O)n(C)c(=O)n3C`, the EC50 is > 40 µM (inactive). On to `Cc1ccc(C(=O)/C=C\C(=O)c2ccc(C)cc2)cc1`, for which the EC50 is > 40 µM (inactive). In the case of `CC(C)c1ccc2occ(-c3nn[nH]n3)c(=O)c2c1`, the EC50 was > 40 µM (inactive).

`CN(C)/C=C(/C(=O)c1ccc(Cl)cc1Cl)S(=O)(=O)c1ccccc1`: the EC50 is > 40 µM (inactive). `CCCCC(CC)Cn1c2nc3ccccc3nc2c2c(=N)oc(C)nc21` (stereo not given): the EC50 was > 40 µM (inactive).

Regarding `CCOC(=O)CS(=O)(=O)c1nc(-c2ccc(F)cc2)cc(C(F)(F)F)n1`, the EC50 is > 40 µM (inactive). For `O=C(Nc1ccc(S(=O)(=O)N2CCc3ccccc3C2)cc1)c1ccccc1`, the EC50 is > 40 µM (inactive).

Regarding `Cc1cc(C2C(C#N)=C(N)Oc3n[nH]c(C)c32)c(C)s1` (stereo not given), the EC50 is > 40 µM (inactive).

As for `CCCC(=Nc1ccccc1OC)C1=C(O)CC(c2ccccc2)CC1=O` (stereo not given), the EC50 is > 40 µM (inactive). Under `CC(C)CN=C(NS(=O)(=O)c1ccccc1)C(Cl)(Cl)Cl` stands > 40 µM (inactive); under `O=c1[nH]c2ccccc2nc1Cc1ccccc1`, > 40 µM (inactive); under `O=Cc1ccccc1OS(=O)(=O)c1ccccc1`, > 40 µM (inactive).

Consider `O=C1c2ccccc2C(=O)N1c1ncc(Cc2ccc(Cl)cc2)s1`, for which the EC50 is > 40 µM (inactive).

Consider `COc1ccc(C(C)NC(=O)c2ccccc2)cc1` (stereo not given), for which the EC50 was > 40 µM (inactive).

For the compound `O=C1CC(c2ccc(F)cc2)CC(O)=C1C=NCCN1CCN(C(=O)Nc2ccccc2)CC1` (stereo not given), the EC50 is > 40 µM (inactive).

In the case of `CCC(=NCCc1c(C)[nH]c2ccc(C)cc12)C1=C(O)CC(c2ccccc2)CC1=O` (stereo not given), the EC50 is > 40 µM (inactive). Regarding `Cc1oc2c(c(=O)c1C)C(=O)CC(c1ccccc1)C2` (stereo not given), the EC50 was > 40 µM (inactive).

With `O=c1[nH]c2ccccc2nc1C(Cl)c1ccccc1` (stereo not given), the EC50 is > 40 µM (inactive).

On to `O=C(CCC1CCCC1)c1c(O)c2ccccc2oc1=O`, for which the EC50 was > 40 µM (inactive).

Consider `O=c1c2ccccc2nc(-c2ccc(Cl)c(Cl)c2)n1O`, for which the EC50 was > 40 µM (inactive). As for `O=C(CCl)c1ccc(Cc2ncc(C(F)(F)F)cc2Cl)s1`, the EC50 is > 40 µM (inactive). Consider `CCc1ccc(C(=O)CN2C(=O)NC(C)(CCc3ccccc3)C2=O)cc1` (stereo not given), for which the EC50 is > 40 µM (inactive). The figure for `O=C1C(C2=C(O)c3ccccc3C2=O)=Nc2ccccc21` is > 40 µM (inactive); for `O=S(=O)(CCSc1ccccn1)c1nc2ccccc2s1` it is > 40 µM (inactive); for `O=C(c1c[nH]c(C(=O)C(Cl)(Cl)Cl)c1)c1ccccc1Cl` it is > 40 µM (inactive). As to `CCOC(=O)C(=Cc1ccc(F)cc1)C(=O)OCC`, the EC50 was > 40 µM (inactive). Turning to `CN(c1ccccc1)c1nc2ccsc2c(=O)s1`, the EC50 was > 40 µM (inactive). Consider `CCCCSc1nc(O)c(C2OC(=O)c3c2ccc(OC)c3OC)c(=O)n1C` (stereo not given), for which the EC50 was > 40 µM (inactive).

In the case of `CS(=O)(=O)Oc1ccc(Br)cc1/C=C1/N=C(c2ccco2)OC1=O`, the EC50 was > 40 µM (inactive). As to `Cn1c(=O)c2c(nc(Br)n2Cc2ccc3ccccc3c2)n(C)c1=O`, the EC50 was > 40 µM (inactive). In the case of `CC1CCCCN1C(=S)Nc1ccc2nc3n(c(=O)c2c1)CCCCC3` (stereo not given), the EC50 is > 40 µM (inactive). `O=C1C=CC2C(c3ccc4c(c3)OCO4)CC1N2Cc1ccccc1` (stereo not given): the EC50 was > 40 µM (inactive). The figure for `CC1=CS(=O)(=O)CC1Sc1nc2ccccc2[nH]1` (stereo not given) is > 40 µM (inactive); for `CCCCOC(=O)n1c(=O)oc2cc(S(=O)(=O)N3CCCCC3)ccc21` it is > 40 µM (inactive); for `CCCCC1C(=O)CC[C@H]2[C@@H]1CC(=O)[C@@H]2C/C=C\CCCC(=O)O` (stereo not given in full) it is > 40 µM (inactive). `O=C1c2ccccc2C(Nc2ccc3c(c2)OCCO3)N1c1ccccn1` (stereo not given): the EC50 is > 40 µM (inactive). `O=C(O)c1c[nH]c(=S)n1-c1ccc(F)cc1`: the EC50 was > 40 µM (inactive). On to `CC[n+]1c(/C=C2\C=C(C)CC(C)(C)C2)sc2ccccc21`, for which the EC50 was > 40 µM (inactive). The figure for `CN1C/C(=C/c2cccnc2)C(=O)/C(=C/c2cccnc2)C1` is > 40 µM (inactive); for `CN1C(=O)NC(c2ccc(O)cc2)C(C(=O)c2cccs2)C1(O)C(F)(F)F` (stereo not given) it is > 40 µM (inactive).

These data come from PubChem BioAssay AID816 (SRMLSC, 2007).
